Patent US10166197B2, “Sugar ester nanoparticle stabilizers” (St. John's University, priority 2015, dated 2019)

Assay: Dispersion test, USP apparatus II (paddle method), 0.45 μm filtration and HPLC
Format: physicochemical
Settings: 0.45 μm pore size filter
Method: Dispersion tests were then run on each of the dosage forms using USP apparatus II (the paddle method). Dried samples corresponding to 20 mg of the lyophilized powder were weighed and mixed with 2% SLS and placed into 250 mL of dissolution media with a holding temperature at 37±0.5° C. The rotation speed of the paddle was set to 50 rpm. The dispersion test was performed in two steps: stimulated gastric fluid (pH 1.2) for up to 120 minutes, and changing the pH to pH 6.8 after that by adding 1N NaOH. This is to mimic the gastrointestinal pH conditions. Aliquots of the suspension were taken after 1, 3, 5, 10, 15, 30, 60, 120, 150, and 180 minutes. The aliquots were then filtered through a hydrophilic PTFE membrane filter with 0.45 μm pore size, diluted appropriately with an organic solvent to dissolve drug particles and analyzed for drug content by HPLC.
Dispersion tests were also performed on capsules and tablets of the lyophilized powder.

Compound: CC(C)(Sc1cc(C(C)(C)C)c(O)c(C(C)(C)C)c1)Sc1cc(C(C)(C)C)c(O)c(C(C)(C)C)c1 [neat probucol powder, probucol]
- drug dispersion (result in words): did not demonstrate any drug dispersion
